pIC50: −log10 of the molar value.

Our source for the IC50 values is patent US10172814B2, “Substituted pyridyl-cycloalkyl-carboxylic acids, compositions containing them and medical uses thereof” (BAYER PHARMA AKTIENGESELLSCHAFT, priority 2014, dated 2019).

The test deals with human PTGES (Homo sapiens (Human), UniProt O14684). The experiment in a line: Human PTGES biochemical enzyme inhibition assay (conversion of PGH2 to PGE2, TR-FRET). As to conditions: Enzymatic conversion of PGH2 to PGE2; read-out: Human PTGES IC50. The method, then: Human PTGES Biochemical Enzyme Inhibition Assay:
PTGES (Microsomal prostaglandin E synthase 1) is an enzyme that converts prostaglandin H2 (PGH2) to prostaglandin E2 (PGE2) in the presence of reduced glutathione (GSH).
Recombinant proteins (human isoforms) of PTGES containing a FLAG tag, expressed in baculovirus infected insect cells (Hi-5) and purified by affinity chromatography was used as enzyme in the assay. Substrate was prostaglandin H2 (Cayman Chemicals).
4 ul of a solution of human PTGES in assay buffer [100 mM sodium phosphate pH 7.2, 2.5 mM Glutathion reduced, 1 mM EDTA, 0.01% BSA, 0.4 mM DTT, 0.15 mM n-dodecylmaltoside] was added to the well containing test compound and incubated for 15-20 minutes to allow binding of the compound to the enzyme prior to the enzymatic reaction. The reaction was started by addition of 1 ul of an ice cold solution containing PGH2 (40 nM in assay buffer resulting in a final concentration of 8 nM PGH2 in the assay). […] The concentration of each isoform of PTGES was adapted to the activity of the respective enzyme preparation to maintain linear reaction properties within the reaction time. […] The reaction was stopped by addition of 1 ul of a solution containing 15 mM SnCl2 and 400 mM KF in water. SnCl2 converts the remaining unstable PGH2 to stable PGF2alpha. Then, 3 ul of the a first detection solution containing PGE2-D2 (Cisbio Bioassays, TR-FRET reagent, diluted according to the manufacturer's recommendation, typically 1:20 in reconstitution buffer) was added. […] The resulting mix was incubated overnight at 4° C. to allow the formation of a complex of PGE2 and the detection reagents. […] Dilution series were made prior to the assay in a 100 fold concentrated form by serial dilution. IC50 values were calculated by 4-Parameter fitting.

Chain of human PTGES (O14684 whole entry): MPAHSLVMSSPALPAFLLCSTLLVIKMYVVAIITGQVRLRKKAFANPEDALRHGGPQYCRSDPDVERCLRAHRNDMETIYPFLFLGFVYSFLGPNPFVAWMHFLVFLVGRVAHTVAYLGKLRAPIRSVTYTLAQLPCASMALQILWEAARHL

Regarding `CCOc1cncc(-c2ccc(C(C(=O)Nc3cccc(C(C)CC(=O)O)c3C)C3CCCC3)cc2)c1` (mixture of isomers) [Example 90, (3R/S)-3-[3-({(2R/S)-2-Cyclopentyl-2-[4-(5-ethoxypyridin-3-yl)phenyl]acetyl}amino)-2-methylphenyl]butanoic acid], the pIC50 is 6.97.

Regarding `Cc1c(NC(=O)C(c2ccc(-c3cncc(C(F)(F)F)c3)cc2)C2CCCC2)cccc1C(C)CC(=O)O` (mixture of isomers) [Example 91, (3R/S)-3-(3-{[(2R/S)-2-Cyclopentyl-2-{4-[5-(trifluoromethyl)pyridin-3-yl]phenyl}acetyl]amino}-2-methylphenyl)butanoic acid], the pIC50 was 7.69.

Consider `CCc1cncc(-c2ccc(C(C(=O)Nc3cccc(C(C)CC(=O)O)c3C)C3CCCC3)cc2)c1` (mixture of isomers) [Example 92, (3R/S)-3-[3-({(2R/S)-2-Cyclopentyl-2-[4-(5-ethylpyridin-3-yl)phenyl]acetyl}amino)-2-methylphenyl]butanoic acid], for which the pIC50 was 7.66.

On to `Cc1cc(-c2ccc(C(C(=O)Nc3cccc(C(C)CC(=O)O)c3C)C3CCCC3)cc2)cnc1C` (mixture of isomers) [Example 93, (3R/S)-3-[3-({(2R/S)-2-Cyclopentyl-2-[4-(5,6-dimethylpyridin-3-yl)phenyl]acetyl}amino)-2-methylphenyl]butanoic acid], for which the pIC50 is 7.45.

On to `Cc1cncc(-c2ccc(C(C(=O)Nc3cccc(C(C)CC(=O)O)c3C)C3CCCC3)cc2)c1` (mixture of isomers) [Example 94, (3R/S)-3-[3-({(2R/S)-2-Cyclopentyl-2-[4-(5-methylpyridin-3-yl)phenyl]acetyl}amino)-2-methylphenyl]butanoic acid], for which the pIC50 is 7.49.

As for `Cc1c(NC(=O)C(c2ccc(-c3cncc(F)c3)cc2)C2CCCC2)cccc1C(C)CC(=O)O` (mixture of isomers) [Example 95, (3R/S)-3-[3-({(2R/S)-2-Cyclopentyl-2-[4-(5-fluoropyridin-3-yl)phenyl]acetyl}amino)-2-methylphenyl]butanoic acid], the pIC50 is 7.38.

Consider `Cc1ncc(-c2ccc(C(C(=O)Nc3cccc(C(C)CC(=O)O)c3C)C3CCCC3)cc2)cc1F` (mixture of isomers) [Example 96, (3R/S)-3-[3-({(2R/S)-2-[4-(5-Fluoro-6-methylpyridin-3-yl)phenyl]-2-cyclopentylacetyl}amino)-2-methylphenyl]butanoic acid], for which the pIC50 was 7.43.

With `Cc1ncc(-c2ccc(C(C(=O)Nc3cccc(C(C)CC(=O)O)c3C)C3CCCC3)cc2)cc1Cl` (mixture of isomers) [Example 97, (3R/S)-3-[3-({(2R/S)-2-[4-(5-Chloro-6-methylpyridin-3-yl)phenyl]-2-cyclopentylacetyl}amino)-2-methylphenyl]butanoic acid], the pIC50 is 7.89.

`Cc1c(NC(=O)C(c2ccc(-c3cncc(C(F)F)c3)cc2)C2CCCC2)cccc1C(C)CC(=O)O` (mixture of isomers) [Example 98, (3R/S)-3-(3-{[(2R/S)-2-Cyclopentyl-2-{4-[5-(difluoromethyl)pyridin-3-yl]phenyl}acetyl]amino}-2-methylphenyl)butanoic acid]: the pIC50 is 7.47.

Regarding `CCOc1cncc(-c2ccc(C(C(=O)Nc3cccc(C(CC)CC(=O)O)c3C)C3CCCC3)cc2)c1` (mixture of isomers) [Example 107, (3R/S)-3-[3-({(2R/S)-2-Cyclopentyl-2-[4-(5-ethoxypyridin-3-yl)phenyl]acetyl}amino)-2-methylphenyl]pentanoic acid], the pIC50 is 6.97.

`Cc1ncc(-c2ccc(C(C(=O)Nc3cccc(C(CC(=O)O)C4CC4)c3C)C3CCCC3)cc2)cc1Cl` (mixture of isomers) [Example 108, (3R/S)-3-[3-({(2R/S)-2-[4-(5-chloro-6-methylpyridin-3-yl)phenyl]-2-cyclopentylacetyl}amino)-2-methylphenyl]-3-cyclopropylpropanoic acid]: the pIC50 is 7.50.

As to `Cc1c(NC(=O)C(c2ccc(-c3cncc(C(F)(F)F)c3)cc2)C2CCCC2)cccc1C(CC(=O)O)C1CC1` (mixture of isomers) [Example 109, (3R/S)-3-(3-{[(2R/S)-2-cyclopentyl-2-{4-[5-(trifluoromethyl)pyridin-3-yl]phenyl}acetyl]amino}-2-methylphenyl)-3-cyclopropylpropanoic acid], the pIC50 was 7.60.

For `Cc1c(NC(=O)C(c2ccc(-c3cncc(Cl)c3)cc2)C2CCCC2)cccc1C(CC(=O)O)C1CC1` (mixture of isomers) [Example 110, (3R/S)-3-[3-({(2R/S)-2-[4-(5-chloropyridin-3-yl)phenyl]-2-cyclopentylacetyl}amino)-2-methylphenyl]-3-cyclopropylpropanoic acid], the pIC50 is 7.26.

In the case of `CCOc1cncc(-c2ccc(C(C(=O)Nc3cccc(C(CC(=O)O)C4CC4)c3C)C3CCCC3)cc2)c1` (mixture of isomers) [Example 111, (3R/S)-3-[3-({(2R/S)-2-cyclopentyl-2-[4-(5-ethoxypyridin-3-yl)phenyl]acetyl}amino)-2-methylphenyl]-3-cyclopropylpropanoic acid], the pIC50 was 7.27.

As to `Cc1c(NC(=O)C(c2ccc(-c3cncc(F)c3)cc2)C2CCCC2)cccc1C(CC(=O)O)C1CC1` (mixture of isomers) [Example 112, (3R/S)-3-[3-({(2R/S)-2-cyclopentyl-2-[4-(5-fluoropyridin-3-yl)phenyl]acetyl}amino)-2-methylphenyl]-3-cyclopropylpropanoic acid], the pIC50 is 7.28.

In the case of `Cc1cncc(-c2ccc(C(C(=O)Nc3cccc(C(CC(=O)O)C4CC4)c3C)C3CCCC3)cc2)c1` (mixture of isomers) [Example 113, (3R/S)-3-[3-({(2R/S)-2-cyclopentyl-2-[4-(5-methylpyridin-3-yl)phenyl]acetyl}amino)-2-methylphenyl]-3-cyclopropylpropanoic acid], the pIC50 is 6.85.

As for `CCc1cncc(-c2ccc(C(C(=O)Nc3cccc(C(CC(=O)O)C4CC4)c3C)C3CCCC3)cc2)c1` (mixture of isomers) [Example 114, (3R/S)-3-[3-({(2R/S)-2-cyclopentyl-2-[4-(5-ethylpyridin-3-yl)phenyl]acetyl}amino)-2-methylphenyl]-3-cyclopropylpropanoic acid], the pIC50 was 7.53.

As to `Cc1c(NC(=O)C(c2ccc(-c3cncc(C(F)(F)F)c3)c(F)c2)C2CCCC2)cccc1C(C)CC(=O)O` (mixture of isomers) [Example 115, (3R/S)-3-(3-{[(2R/S)-2-Cyclopentyl-2-{3-fluoro-4-[5-(trifluoromethyl)pyridin-3-yl]phenyl}acetyl]amino}-2-methylphenyl)butanoic acid], the pIC50 was 7.73.

With `Cc1ncc(-c2ccc(C(C(=O)Nc3cccc(C(C)CC(=O)O)c3C)C3CCCC3)cc2F)cc1Cl` (mixture of isomers) [Example 120, (3R/S)-3-[3-({(2R/S)-2-[4-(5-Chloro-6-methylpyridin-3-yl)-3-fluorophenyl]-2-cyclopentylacetyl}amino)-2-methylphenyl]butanoic acid], the pIC50 was 7.80.

Turning to `Cc1c(NC(=O)C(c2ccc(-c3cncc(Cl)c3)c(F)c2)C2CCCC2)cccc1C(C)CC(=O)O` (mixture of isomers) [Example 125, (3R/S)-3-[3-({(2R/S)-2-[4-(5-Chloropyridin-3-yl)-3-fluorophenyl]-2-cyclopentylacetyl}amino)-2-methylphenyl]butanoic acid], the pIC50 is 7.64.

With `Cc1c(NC(=O)C(c2ccc(-c3cncc(Cl)c3)cc2)C2CCC2)cccc1C(C)CC(=O)O` (mixture of isomers) [Example 135, (3R/S)-3-[3-({(2R/S)-2-[4-(5-Chloropyridin-3-yl)phenyl]-2-cyclobutylacetyl}amino)-2-methylphenyl]butanoic acid], the pIC50 was 7.06.

On to `Cc1c(NC(=O)C(c2ccc(-c3cncc(C(F)(F)F)c3)c(F)c2)C2CCC2)cccc1C(C)CC(=O)O` (mixture of isomers) [Example 145, (3R/S)-3-(3-{[(2R/S)-2-Cyclobutyl-2-{3-fluoro-4-[5-(trifluoromethyl)pyridin-3-yl]phenyl}acetyl]amino}-2-methylphenyl)butanoic acid], for which the pIC50 was 7.30.

`Cc1c(NC(=O)C(c2ccc(-c3cncc(C(F)(F)F)c3)c(F)c2)C2CCC2)cccc1C(C)CC(=O)O` (mixture of isomers) [Example 146, 3-{3-[(Cyclobutyl{3-fluoro-4-[5-(trifluoromethyl)pyridin-3-yl]phenyl}acetyl)amino]-2-methylphenyl}butanoic acid, Stereoisomeric Mixture 1]: the pIC50 was 7.90.

In the case of `Cc1c(CCC(=O)O)cccc1NC(=O)C(c1ccc(-c2ccc(C(F)(F)F)nc2)cc1)C1CCCC1` (racemic) [Example 4, (R/S) 3-{3-[(Cyclopentyl{4-[6-(trifluoromethyl)pyridin-3-yl]phenyl}acetyl)amino]-2-methylphenyl}propanoic acid], the pIC50 was 5.88.

Broadly, the pIC50 is the negative decadic logarithm of the IC50, by convention in mol/L.
